Measured values reported in PMC6576746, “Rational discovery of dual-indication multi-target PDE/Kinase inhibitor for precision anti-cancer therapy using structural systems pharmacology” (PLoS Computational Biology, 2019).

Tests used:
Test in all cases: biochemical
Set-up in all cases: DiscoverX KinomeScan competition binding assay across human kinases; per cent of control at 10 and 100 uM
AURKA = AURKA (Homo sapiens, UniProt O14965); conditions: competition binding, % of control; read-out: Percent Control (100 uM Levosimendan)
Method: (§1) To validate our computational predictions, we employed a competition binding assay to detect the binding of levosimendan to 425 human kinases as well as its dose-response curve to RIOK1. The proprietary KinomeScan assay was performed by DiscoverX (Fremont, California, USA). The tests were performed at 10 μM and 100 μM concentrations of levosimendan, respectively. Assay results were reported as %control, calculated as follows: %control=(TestCompoundSignal−PositiveControlSignal)/(NegativeControlSignal−PositiveControlSignal)×100 KinomeScan assay across 452 human kinases verified our computational prediction (S1 Table). RIOK1 is one of the strongest inhibited kinases by levosimendan. The percentage control of RIOK1 is 15.0 and 0.0 under the treatment of 10 μM and 100 μM of levosimendan, respectively. […] The percentage controls of five kinases: FLT3, MAP2K5, PIP5K1A, GAK, and KIT are less than 30.0 under the treatment of both 10 μM and 100 μM of levosimendan. Both FLT3 and KIT are tyrosine protein kinases. Their inhibitors have recently been approved for the treatment of Acute Myeloid Leukemia and other types of cancers, but a combination therapy is needed to overcome rapidly emerged drug resistance, thus improve patients’ drug responses. Other kinases inhibited by levosimendan belong to serine/threonine protein kinase family (RIOK1, RIOK3, GAK, and MAP2K5) and lipid kinase family (PIP5K1A). […] As a result, levosimendan may modulate different cancer pathways from those by the tyrosine protein kinase inhibitors, and it could be a novel lead compound for a new anti-cancer therapy to overcome drug resistance of existing drugs or to target different types of cancers through polypharmacology or drug combination.

PRKCI = PRKCI (Homo sapiens, UniProt P41743); conditions: competition binding, % of control; read-out: Percent Control (100 uM Levosimendan)
Method: as §1

FGFR4 = FGFR4 (Homo sapiens, UniProt P22455); conditions: competition binding, % of control; read-out: Percent Control (100 uM Levosimendan)
Method: as §1

MET(M1250T) = MET(M1250T) (Homo sapiens, UniProt P08581, M1250T); conditions: competition binding, % of control; read-out: Percent Control (100 uM Levosimendan)
Method: as §1

MST1R = MST1R (Homo sapiens, UniProt Q04912); conditions: competition binding, % of control; read-out: Percent Control (100 uM Levosimendan)
Method: as §1

PIK3CB = PIK3CB (Homo sapiens, UniProt P42338); conditions: competition binding, % of control; read-out: Percent Control (100 uM Levosimendan)
Method: as §1

ERK8 = molecular target: T1, ERK8 (Homo sapiens, UniProt Q8TD08); conditions: competition binding, % of control; read-out: Percent Control (100 uM Levosimendan)
T1 construct: gene MAPK15
Method: as §1

MAP3K3 = MAP3K3 (Homo sapiens, UniProt Q99759); conditions: competition binding, % of control; read-out: Percent Control (100 uM Levosimendan)
Method: as §1

AURKB = AURKB (Homo sapiens, UniProt Q96GD4); conditions: competition binding, % of control
Method: as §1

[1] = molecular target: T2, RPS6KA5(Kin.Dom.1-N-terminal) (Homo sapiens, UniProt O75582); conditions: competition binding, % of control; read-out: Percent Control (100 uM Levosimendan)
T2 construct: Kin.Dom.1-N-terminal
Method: as §1

PLK1 = PLK1 (Homo sapiens, UniProt P53350); conditions: competition binding, % of control; read-out: Percent Control (100 uM Levosimendan)
Method: as §1

EGFR(L861Q) = EGFR(L861Q) (Homo sapiens, UniProt P00533, L861Q); conditions: competition binding, % of control; read-out: Percent Control (100 uM Levosimendan)
Method: as §1

ASK1 = molecular target: T3, ASK1 (Homo sapiens, UniProt Q99683); conditions: competition binding, % of control; read-out: Percent Control (100 uM Levosimendan)
T3 construct: gene MAP3K5
Method: as §1

PIP5K1C = PIP5K1C (Homo sapiens, UniProt O60331); conditions: competition binding, % of control
Method: as §1

LATS1 = LATS1 (Homo sapiens, UniProt O95835); conditions: competition binding, % of control; read-out: Percent Control (100 uM Levosimendan)
Method: as §1

[2] = molecular target: T4, JAK1(JH2domain-pseudokinase) (Homo sapiens, UniProt P23458); conditions: competition binding, % of control
T4 construct: JH2domain-pseudokinase
Method: as §1

GRK7 = GRK7 (Homo sapiens, UniProt Q8WTQ7); conditions: competition binding, % of control; read-out: Percent Control (100 uM Levosimendan)
Method: as §1

DYRK2 = DYRK2 (Homo sapiens, UniProt Q92630); conditions: competition binding, % of control; read-out: Percent Control (100 uM Levosimendan)
Method: as §1

[3] = read-out: Percent Control (10 uM Levosimendan)
[4] = read-out: Percent Control (100 uM Levosimendan)

T4 sequence (P23458 whole entry): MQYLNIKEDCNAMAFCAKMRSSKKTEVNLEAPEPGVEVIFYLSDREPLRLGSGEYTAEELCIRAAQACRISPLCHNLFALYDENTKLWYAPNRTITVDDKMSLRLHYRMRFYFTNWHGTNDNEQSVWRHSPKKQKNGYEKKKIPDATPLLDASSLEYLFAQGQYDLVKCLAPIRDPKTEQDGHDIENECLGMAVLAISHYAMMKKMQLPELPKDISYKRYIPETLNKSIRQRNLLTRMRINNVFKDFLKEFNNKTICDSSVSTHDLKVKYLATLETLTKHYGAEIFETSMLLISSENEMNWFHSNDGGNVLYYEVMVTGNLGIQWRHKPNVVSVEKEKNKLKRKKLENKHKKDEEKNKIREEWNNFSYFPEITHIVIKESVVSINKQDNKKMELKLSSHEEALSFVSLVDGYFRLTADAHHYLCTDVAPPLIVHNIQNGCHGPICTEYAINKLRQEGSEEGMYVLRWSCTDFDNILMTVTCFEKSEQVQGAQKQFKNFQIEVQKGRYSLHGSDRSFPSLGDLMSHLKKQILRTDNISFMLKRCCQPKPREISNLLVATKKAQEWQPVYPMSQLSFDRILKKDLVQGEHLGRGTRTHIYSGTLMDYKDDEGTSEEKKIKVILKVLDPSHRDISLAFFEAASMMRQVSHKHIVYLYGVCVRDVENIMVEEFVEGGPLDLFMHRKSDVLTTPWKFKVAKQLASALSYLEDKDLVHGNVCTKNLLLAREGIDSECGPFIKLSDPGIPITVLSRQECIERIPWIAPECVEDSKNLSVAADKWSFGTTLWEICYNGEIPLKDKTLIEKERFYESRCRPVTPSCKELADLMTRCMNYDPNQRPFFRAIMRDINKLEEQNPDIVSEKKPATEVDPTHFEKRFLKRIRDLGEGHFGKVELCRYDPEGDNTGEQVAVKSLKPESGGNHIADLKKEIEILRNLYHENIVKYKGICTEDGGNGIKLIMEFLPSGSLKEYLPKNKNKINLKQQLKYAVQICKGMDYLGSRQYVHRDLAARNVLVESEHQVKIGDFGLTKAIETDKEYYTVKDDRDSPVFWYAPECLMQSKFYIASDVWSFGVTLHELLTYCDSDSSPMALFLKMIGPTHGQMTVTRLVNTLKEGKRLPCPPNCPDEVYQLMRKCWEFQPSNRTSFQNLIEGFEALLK
Sequence of PIP5K1C (O60331 whole entry): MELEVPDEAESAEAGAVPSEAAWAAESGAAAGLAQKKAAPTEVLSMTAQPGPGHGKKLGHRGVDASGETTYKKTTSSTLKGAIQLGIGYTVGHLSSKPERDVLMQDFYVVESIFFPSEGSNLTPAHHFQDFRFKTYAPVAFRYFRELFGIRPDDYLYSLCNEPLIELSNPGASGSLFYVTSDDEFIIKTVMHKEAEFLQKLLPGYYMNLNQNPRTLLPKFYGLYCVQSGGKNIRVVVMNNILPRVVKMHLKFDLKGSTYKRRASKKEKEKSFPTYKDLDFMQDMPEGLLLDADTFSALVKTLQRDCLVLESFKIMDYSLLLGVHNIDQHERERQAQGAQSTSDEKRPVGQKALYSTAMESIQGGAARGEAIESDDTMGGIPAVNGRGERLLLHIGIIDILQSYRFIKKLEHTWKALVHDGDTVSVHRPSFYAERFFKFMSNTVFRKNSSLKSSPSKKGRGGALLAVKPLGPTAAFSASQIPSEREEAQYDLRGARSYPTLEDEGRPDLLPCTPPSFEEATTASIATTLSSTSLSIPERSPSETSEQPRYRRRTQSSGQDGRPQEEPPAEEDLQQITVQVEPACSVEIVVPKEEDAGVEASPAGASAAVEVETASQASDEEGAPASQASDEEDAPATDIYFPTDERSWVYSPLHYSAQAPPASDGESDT
Sequence of AURKB (Q96GD4 whole entry): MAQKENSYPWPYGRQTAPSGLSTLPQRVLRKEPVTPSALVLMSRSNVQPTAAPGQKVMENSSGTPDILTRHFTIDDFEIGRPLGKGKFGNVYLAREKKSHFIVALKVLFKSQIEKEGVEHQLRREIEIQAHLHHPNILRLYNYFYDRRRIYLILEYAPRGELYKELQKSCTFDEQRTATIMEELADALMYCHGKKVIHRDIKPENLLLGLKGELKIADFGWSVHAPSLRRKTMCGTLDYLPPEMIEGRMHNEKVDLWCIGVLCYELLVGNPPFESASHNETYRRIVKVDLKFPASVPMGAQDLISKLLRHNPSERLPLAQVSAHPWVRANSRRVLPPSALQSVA
Sequence of PIK3CB (P42338 whole entry): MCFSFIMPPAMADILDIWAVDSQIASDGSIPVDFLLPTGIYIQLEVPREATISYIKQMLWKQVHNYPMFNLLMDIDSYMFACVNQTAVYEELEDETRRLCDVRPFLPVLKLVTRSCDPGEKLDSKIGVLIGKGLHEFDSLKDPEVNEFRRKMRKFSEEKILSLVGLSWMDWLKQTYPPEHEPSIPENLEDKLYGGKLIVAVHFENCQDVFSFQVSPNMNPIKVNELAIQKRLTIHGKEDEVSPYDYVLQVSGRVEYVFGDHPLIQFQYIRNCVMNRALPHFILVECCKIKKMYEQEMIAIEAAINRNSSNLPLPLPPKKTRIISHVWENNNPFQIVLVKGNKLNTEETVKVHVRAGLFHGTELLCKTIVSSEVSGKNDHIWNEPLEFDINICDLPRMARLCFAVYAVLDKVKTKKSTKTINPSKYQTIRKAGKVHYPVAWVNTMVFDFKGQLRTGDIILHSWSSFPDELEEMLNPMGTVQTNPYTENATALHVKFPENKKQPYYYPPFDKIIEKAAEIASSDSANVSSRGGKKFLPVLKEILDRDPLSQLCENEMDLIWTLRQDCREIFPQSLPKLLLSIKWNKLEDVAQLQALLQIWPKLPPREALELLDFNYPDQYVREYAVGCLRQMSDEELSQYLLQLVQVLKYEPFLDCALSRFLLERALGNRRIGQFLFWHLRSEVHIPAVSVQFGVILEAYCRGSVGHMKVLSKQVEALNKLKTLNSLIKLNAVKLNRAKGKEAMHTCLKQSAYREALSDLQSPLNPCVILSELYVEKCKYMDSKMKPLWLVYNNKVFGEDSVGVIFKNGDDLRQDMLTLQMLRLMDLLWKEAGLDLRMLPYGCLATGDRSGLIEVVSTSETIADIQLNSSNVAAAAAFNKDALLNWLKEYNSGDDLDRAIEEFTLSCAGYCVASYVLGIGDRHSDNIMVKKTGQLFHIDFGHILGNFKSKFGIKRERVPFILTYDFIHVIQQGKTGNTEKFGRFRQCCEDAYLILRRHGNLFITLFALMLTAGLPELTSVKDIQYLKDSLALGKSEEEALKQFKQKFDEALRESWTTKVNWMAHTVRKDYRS
T3 sequence (Q99683 whole entry): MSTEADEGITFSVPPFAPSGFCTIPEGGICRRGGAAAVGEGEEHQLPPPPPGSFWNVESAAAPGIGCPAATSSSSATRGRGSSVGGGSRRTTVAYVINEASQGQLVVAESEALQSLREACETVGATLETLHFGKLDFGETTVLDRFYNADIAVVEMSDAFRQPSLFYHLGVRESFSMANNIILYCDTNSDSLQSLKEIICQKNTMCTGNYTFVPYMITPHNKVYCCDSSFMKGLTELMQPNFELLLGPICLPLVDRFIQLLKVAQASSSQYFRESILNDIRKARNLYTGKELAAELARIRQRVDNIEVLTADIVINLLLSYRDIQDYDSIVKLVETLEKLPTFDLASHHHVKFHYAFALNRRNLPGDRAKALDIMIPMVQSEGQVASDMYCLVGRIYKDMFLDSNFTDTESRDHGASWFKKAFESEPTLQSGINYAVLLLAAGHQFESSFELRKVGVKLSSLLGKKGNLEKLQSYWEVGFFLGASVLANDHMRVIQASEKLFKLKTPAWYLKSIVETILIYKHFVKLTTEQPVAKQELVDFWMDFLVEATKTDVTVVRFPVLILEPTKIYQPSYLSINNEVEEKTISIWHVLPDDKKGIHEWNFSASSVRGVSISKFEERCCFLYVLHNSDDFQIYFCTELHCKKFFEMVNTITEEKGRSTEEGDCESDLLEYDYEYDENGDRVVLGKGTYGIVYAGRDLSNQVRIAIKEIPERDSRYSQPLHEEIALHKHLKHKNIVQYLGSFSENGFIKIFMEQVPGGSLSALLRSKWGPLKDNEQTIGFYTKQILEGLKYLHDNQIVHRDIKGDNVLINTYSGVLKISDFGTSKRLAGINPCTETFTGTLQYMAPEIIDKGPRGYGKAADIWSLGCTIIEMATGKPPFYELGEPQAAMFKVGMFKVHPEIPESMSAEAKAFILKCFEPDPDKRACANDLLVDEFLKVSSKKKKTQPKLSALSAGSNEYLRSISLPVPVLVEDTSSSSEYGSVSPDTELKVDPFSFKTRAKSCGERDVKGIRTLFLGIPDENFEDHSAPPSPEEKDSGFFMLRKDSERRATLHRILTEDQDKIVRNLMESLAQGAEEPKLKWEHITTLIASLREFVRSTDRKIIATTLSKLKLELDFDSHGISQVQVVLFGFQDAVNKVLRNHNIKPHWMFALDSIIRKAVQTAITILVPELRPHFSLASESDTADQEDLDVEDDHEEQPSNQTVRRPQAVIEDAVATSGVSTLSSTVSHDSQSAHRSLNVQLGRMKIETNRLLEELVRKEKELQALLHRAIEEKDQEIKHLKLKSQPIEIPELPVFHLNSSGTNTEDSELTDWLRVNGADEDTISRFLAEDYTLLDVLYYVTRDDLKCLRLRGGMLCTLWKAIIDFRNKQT
Sequence of AURKA (O14965 whole entry): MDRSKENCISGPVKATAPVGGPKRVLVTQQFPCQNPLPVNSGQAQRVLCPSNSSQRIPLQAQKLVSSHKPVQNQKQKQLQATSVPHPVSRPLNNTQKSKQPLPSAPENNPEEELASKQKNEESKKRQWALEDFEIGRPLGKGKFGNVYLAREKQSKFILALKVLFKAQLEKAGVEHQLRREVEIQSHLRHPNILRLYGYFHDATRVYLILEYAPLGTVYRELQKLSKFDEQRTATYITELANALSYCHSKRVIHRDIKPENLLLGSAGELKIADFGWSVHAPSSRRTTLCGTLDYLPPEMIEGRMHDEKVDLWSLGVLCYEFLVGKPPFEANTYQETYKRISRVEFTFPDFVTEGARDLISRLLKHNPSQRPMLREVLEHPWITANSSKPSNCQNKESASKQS

- remaining binding at 100 µM (AURKA): 73%
- remaining binding at 100 µM (PRKCI): 58%
- remaining binding at 100 µM (FGFR4): 92%
- remaining binding at 100 µM (MET(M1250T)): 91%
- remaining binding at 100 µM (MST1R): 87%
- remaining binding at 100 µM (PIK3CB): 100%
- remaining binding at 100 µM (MAP3K3): 66%
- remaining binding at 10 µM (AURKB; [3]): 75%
- remaining binding at 100 µM (AURKB; [4]): 28%
- remaining binding at 100 µM [1]: 62%
- remaining binding at 100 µM (PLK1): 100%
- remaining binding at 100 µM (EGFR(L861Q)): 71%
- remaining binding at 100 µM (ASK1): 100%
- remaining binding at 10 µM (PIP5K1C; [3]): 91%
- remaining binding at 100 µM (PIP5K1C; [4]): 50%
- remaining binding at 100 µM (LATS1): 100%
- remaining binding at 10 µM [2, 3]: 30%
- remaining binding at 100 µM [2, 4]: 7.2%
- remaining binding at 100 µM (GRK7): 100%
- remaining binding at 100 µM (DYRK2): 85%
Compound: C[C@@H]1CC(=O)NN=C1c1ccc(NN=C(C#N)C#N)cc1 [levosimendan]
- remaining binding at 100 µM (ERK8): 100%
